How the values were obtained:
[1] = molecular target: Muscarinic acetylcholine receptor M4 (Homo sapiens, UniProt P08173); experiment: GPCRScan assay: inhibition of M4; parameters: radioligand conc. used [nm] 0.3 – 1.0, parental cells stable CHO
[2] = molecular target: Leukocyte tyrosine kinase receptor (Homo sapiens) (UniProt P29376); experiment: LTK(h) Eurofins Kinase panel; conditions: Compound concentration 1.0 uM
[3] = molecular target: Tyrosine-protein kinase SYK (Homo sapiens) (UniProt P43405); experiment: Syk(h) Eurofins Kinase panel; conditions: Compound concentration 1.0 uM
[4] = molecular target: Tyrosine-protein kinase Lyn (Homo sapiens) (UniProt P07948); experiment: Lyn(h) Eurofins Kinase panel; conditions: Compound concentration 1.0 uM
[5] = molecular target: T1, Alpha-2A adrenergic receptor (Homo sapiens) (UniProt P08913); conditions: Compound concentration 10.0 uM
T1 sequence (whole entry): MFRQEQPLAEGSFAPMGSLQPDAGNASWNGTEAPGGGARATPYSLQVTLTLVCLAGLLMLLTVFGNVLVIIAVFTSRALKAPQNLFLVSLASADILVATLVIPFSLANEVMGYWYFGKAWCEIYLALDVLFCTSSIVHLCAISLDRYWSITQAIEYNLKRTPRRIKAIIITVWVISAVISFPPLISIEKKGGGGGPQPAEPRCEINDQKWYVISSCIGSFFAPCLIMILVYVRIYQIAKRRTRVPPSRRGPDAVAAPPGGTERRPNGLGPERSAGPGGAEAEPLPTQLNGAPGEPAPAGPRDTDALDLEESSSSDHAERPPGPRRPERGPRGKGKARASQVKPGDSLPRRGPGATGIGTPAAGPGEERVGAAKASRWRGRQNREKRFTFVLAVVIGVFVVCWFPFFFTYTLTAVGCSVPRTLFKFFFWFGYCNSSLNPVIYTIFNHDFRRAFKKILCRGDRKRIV

Chain of Muscarinic acetylcholine receptor M4 (P08173 whole entry): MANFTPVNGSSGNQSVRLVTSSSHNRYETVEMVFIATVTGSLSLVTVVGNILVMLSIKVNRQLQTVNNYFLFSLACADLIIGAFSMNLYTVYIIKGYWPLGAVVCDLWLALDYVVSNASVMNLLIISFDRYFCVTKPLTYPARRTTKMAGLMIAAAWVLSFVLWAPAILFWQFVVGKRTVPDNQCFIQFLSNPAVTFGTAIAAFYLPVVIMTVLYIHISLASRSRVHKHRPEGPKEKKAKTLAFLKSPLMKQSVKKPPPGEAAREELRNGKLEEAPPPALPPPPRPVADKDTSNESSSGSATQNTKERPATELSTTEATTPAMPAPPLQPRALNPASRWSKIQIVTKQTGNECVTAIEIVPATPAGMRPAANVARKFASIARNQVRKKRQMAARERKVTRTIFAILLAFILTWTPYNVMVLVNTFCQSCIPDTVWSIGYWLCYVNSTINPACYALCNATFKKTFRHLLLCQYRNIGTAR
Chain of Leukocyte tyrosine kinase receptor (Homo sapiens) (P29376 whole entry): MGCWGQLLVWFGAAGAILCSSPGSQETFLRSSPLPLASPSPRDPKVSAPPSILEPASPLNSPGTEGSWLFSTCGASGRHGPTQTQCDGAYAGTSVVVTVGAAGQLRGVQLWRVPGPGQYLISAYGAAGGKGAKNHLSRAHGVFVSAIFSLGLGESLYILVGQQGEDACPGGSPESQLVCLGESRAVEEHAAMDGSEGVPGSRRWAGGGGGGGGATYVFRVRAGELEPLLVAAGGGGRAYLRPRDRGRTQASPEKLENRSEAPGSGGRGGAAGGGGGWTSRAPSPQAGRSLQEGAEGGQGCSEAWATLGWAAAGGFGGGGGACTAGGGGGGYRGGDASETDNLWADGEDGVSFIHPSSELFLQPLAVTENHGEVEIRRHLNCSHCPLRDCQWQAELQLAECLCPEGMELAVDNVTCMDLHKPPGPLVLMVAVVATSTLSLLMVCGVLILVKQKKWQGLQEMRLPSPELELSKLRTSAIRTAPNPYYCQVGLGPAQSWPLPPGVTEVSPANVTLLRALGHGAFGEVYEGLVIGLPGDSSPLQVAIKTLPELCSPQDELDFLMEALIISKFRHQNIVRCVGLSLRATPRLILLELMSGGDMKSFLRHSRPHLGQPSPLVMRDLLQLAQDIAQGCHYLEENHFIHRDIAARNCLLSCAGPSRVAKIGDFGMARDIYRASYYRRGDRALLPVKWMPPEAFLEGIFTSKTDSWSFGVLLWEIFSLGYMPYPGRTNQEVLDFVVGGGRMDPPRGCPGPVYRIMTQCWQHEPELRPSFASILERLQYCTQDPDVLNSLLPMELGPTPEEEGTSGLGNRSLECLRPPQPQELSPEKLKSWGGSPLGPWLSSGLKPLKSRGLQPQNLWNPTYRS
Chain of Tyrosine-protein kinase Lyn (Homo sapiens) (P07948 2-512 limits assumed): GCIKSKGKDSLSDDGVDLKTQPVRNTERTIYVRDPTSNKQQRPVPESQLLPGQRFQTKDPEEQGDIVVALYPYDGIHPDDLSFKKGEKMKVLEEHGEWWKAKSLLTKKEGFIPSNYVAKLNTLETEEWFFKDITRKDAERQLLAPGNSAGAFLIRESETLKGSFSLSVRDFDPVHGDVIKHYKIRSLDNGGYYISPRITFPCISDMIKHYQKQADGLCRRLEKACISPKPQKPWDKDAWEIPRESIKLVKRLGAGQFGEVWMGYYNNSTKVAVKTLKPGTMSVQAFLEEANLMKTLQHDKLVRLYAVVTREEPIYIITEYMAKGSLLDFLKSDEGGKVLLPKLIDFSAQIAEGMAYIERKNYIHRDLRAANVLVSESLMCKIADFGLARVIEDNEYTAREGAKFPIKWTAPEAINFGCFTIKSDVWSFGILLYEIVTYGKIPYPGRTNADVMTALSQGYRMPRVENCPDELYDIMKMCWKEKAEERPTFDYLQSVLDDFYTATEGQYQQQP

Compound	Ki ([1]; read-out: Ki)	Ki ([1]; read-out: pKi (converted))	% residual kinase activity [2]	% residual kinase activity [3]	% residual kinase activity [4]	inhibition [5]
CNCc1ccccc1-c1csc([C@H](C)Nc2nc(C)nc3cc(OC)c(OC)cc23)c1 [BAY-294]	303 nM	292 nM				
CNCc1ccccc1-c1csc([C@@H](C)Nc2nc(C)nc3cc(OC)c(OC)cc23)c1 [BAY-293]			75%	79%	88%	99%

Reference: ChEMBL document CHEMBL4507273 (2021)
